# Residues, ends and D or L forms follow the SMILES beside them.
# Tests used:
# S. aureus ATCC 25923 = type: cell-based, Staphylococcus aureus; conditions: ATCC 25923, 18 h
# Source text: (§1) E. coli ML35p, Listeria monocytogenes EGD, methicillin-resistant Staphylococcus aureus (MRSA) ATCC 33591 were kindly provided by Prof. Robert Lehrer (University of California, Los Angeles, CA, USA); E. coli ATCC 25922, E. coli M15, Pseudomonas aeruginosa ATCC 27853, S. aureus ATCC 25923 were provided by Dr. Elena Ermolenko (Institute of Experimental Medicine, St-Petersburg, Russia); drug-resistant clinical isolates were provided by Prof. Gennadiy Afinogenov (Saint Petersburg State University, Russia); S. aureus 710A has been described previously. The following clinical isolates of bacteria were used: P.s aeruginosa resistant to aztreonam, ceftazidime, cefotaxime (obtained from the urine of a patient with cystitis), Acinetobacter baumannii resistant to meropenem (from an infected wound); Staphylococcus intermedius (from an infected wound caused by a dog bite) resistant to ciprofloxacin, cefuroxime, clindamycin, erythromycin, rifampin, gentamicin, benzylpenicillin, oxacillin.
# (§2) This assay was applied to determine the MIC, according to the guidelines of the Clinical and Laboratory Standards Institute, using Mueller Hinton (MH) Broth. We prepared 2x stocks of peptides and serially diluted them in sterile PBS instead of Mueller Hinton Broth, so that the treatment of the bacteria with the peptides was carried out in a medium containing 50% of MH and 50% of PBS, as described. The overnight cultures of each strain were transferred to fresh MH media and further incubated to obtain a mid-logarithmic-growth-phase culture of bacteria. The absorbance of each bacterial suspension was measured at 620 nm, and bacteria were then diluted to approximately 2 × 10^5 CFU/mL. Then, 50 µL of the suspensions were mixed with 50 µL of the peptide dilutions in the wells of a microtiter plate (pre-treated for 1 h at 37 °C with 0.2% bovine serum albumin (BSA) in water, sterilized by filtration, to diminish the non-specific binding of the peptides to the plastic surfaces).
# MRSA ATCC 33591 = type: cell-based, Staphylococcus aureus; conditions: ATCC 33591, 18 h
# Source text: as §1, §2
# S. aureus c.i. = type: cell-based, Staphylococcus aureus; conditions: 18 h
# Source text: as §1, §2
# [1] = tested on: Staphylococcus intermidius; type: cell-based, Staphylococcus intermedius; conditions: 18 h
# Source text: as §1, §2
# E. coli M15 = type: cell-based, Escherichia coli; conditions: M15, 18 h
# Source text: as §1, §2
# E. coli ATCC 25922 = type: cell-based, Escherichia coli; conditions: ATCC 25922, 18 h
# Source text: as §1, §2
# [2] = tested on: human erythroleukemia K-562 cells; type: cell-based; conditions: 24 h
# Method: The standard MTT ((3-(4,5-Dimethylthiazol-2-yl)-2,5-diphenyltetrazolium bromide) test was used for the examination of the cytotoxic activity of AMPs towards human erithroleukemia cells K-562. The cells were purchased from Biolot (Saint Petersburg, Russia) and were grown in RPMI 1640 medium (Biolot, Saint Petersburg, Russia) supplemented with glutamine and 10% FCS. Before the experiment, the culturing medium was replaced with serum-free RPMI 1640. Serial dilutions of the peptides in RPMI were plated in sterile 96-well microplates, and the target cells were dispensed to the microplates (10^5 cells/well in RPMI 1640). The plates were incubated for 24 h at 37 °C under 5% CO2. Cell-free media and cells incubated without peptides served as controls. Four hours before the incubation ended, MTT in PBS (5 mg/mL) was added to each well. After the incubation was stopped by adding isopropanol/ 0.04 M HCl, the optical density was measured at 540 nm, subtracting the background absorbance at 690 nm. Toxicity was determined by nonlinear regression analysis of the corresponding dose–response curves using the Sigma Plot 11 program to calculate the IC50 values (the concentration of the test substance that reduced the OD540 capacity by 50%).
# [3] = tested on: Pseudomonas aeruginosa ATCC 27853; type: cell-based; conditions: ATCC 27853, 18 h
# Source text: as §1, §2
# [4] = tested on: Staphylococcus aureus 710A; type: cell-based; conditions: 18 h
# Source text: as §1, §2
# [5] = tested on: Listeria monocytogenes EGD; type: cell-based; conditions: 18 h
# Source text: as §1, §2
# P. aeruginosa c.i. = type: cell-based, Pseudomonas aeruginosa; conditions: 18 h
# Source text: as §1, §2
# [6] = tested on: E. coli ML35p outer membrane; assay: Outer membrane permeabilization assay (nitrocefin hydrolysis); type: cell-based, Escherichia coli; conditions: peptide at 2 × MIC, 10 mM sodium phosphate buffer, 100 mM NaCl, pH 7.4, 37 °C, 486 nm
# Method: Figure 5 Permeabilizing effect of arenicin-1 variants on E. coli ML35p outer and cytoplasmic membranes.
# The E. coli ML35p outer membrane permeability was assessed by monitoring hydrolysis of the chromogenic β-lactamase substrate nitrocefin (3-(2,4-dinitrostyryl)-(6R,7R)-7-(2-thienyl acetamido)ceph-3-em-4-carboxylic acid) (Calbiochem-Novabiochem, San-Diego, CA, USA) by detection of the hydrolysis product at 486 nm. Inner membrane permeability was monitored by measuring the hydrolysis of o-nitrophenyl-β-D-galactoside (ONPG, Sigma, La Jolla, CA, USA) at 420 nm. The E. coli ML35p strain expresses a plasmid-encoded periplasmic β-lactamase; it constitutively expresses cytoplasmic β-galactosidase and lacks lactose permease. E. coli ML35p was maintained on trypticase soy agar plates containing […] of ampicillin per mL. The bacteria used for antimicrobial testing or membrane permeability assays were picked from a single colony, incubated in 50 mL of sterile Trypticase soy broth for 16 h at 37 °C, washed three times with 10 mM sodium phosphate buffer (pH 7.4), adjusted to an optical density at 620 nm of 1 (2.5 × 10^8 CFU/mL), and kept on ice until use. The assays were performed in 96-well microtiter plates that were monitored every minute with a SpectraMax 250 Microplate Spectrophotometer (Molecular Devices, Sunnyvale, CA, USA) using the SOFTmax PRO software supplied by the manufacturer. […]
# [7] = tested on: Acinetobacter baumanii c.i.; type: cell-based, Acinetobacter baumannii; conditions: 18 h
# Source text: as §1, §2
# [8] = tested on: set of Gram-negative and Gram-positive bacteria, including drug-resistant clinical isolates; type: cell-based; conditions: 12 strains; median MICs used; MIC > 16 µM taken as 32 µM
# Method: To obtain a global assessment of the effect on antimicrobial activity, the geometric mean of the MIC (G-MIC) was calculated, and from this, the overall improvement or impoverishment with respect to arenicin-1. In general, inverting the symmetry or decreasing the charge had detrimental effects.
# The overall activity against a set of tested bacterial strains was determined by way of the commonly used geometric mean of measured MIC values. […] At the same time, the geometric mean can still discriminate antimicrobial agents showing minor variations in activity; in other words, it has a better “resolution” than the median MIC (MIC50). Some mathematical basics for choosing the geometric mean for antimicrobial activity comparison are further discussed in the Supplementary Chapter S3.
# Escherichia coli ML35p = type: cell-based; conditions: broth microdilution, 50% Mueller Hinton broth / 50% PBS, 18 h at 37 °C, median of 3–5 experiments in triplicates
# Source text: as §1, §2
Compound,Minimal Inhibitory Concentrations (MIC) (S. aureus ATCC 25923) [µM],Minimal Inhibitory Concentrations (MIC) (MRSA ATCC 33591) [µM],Minimal Inhibitory Concentrations (MIC) (S. aureus c.i.) [µM],Minimal Inhibitory Concentrations (MIC) [1] [µM],Minimal Inhibitory Concentrations (MIC) (E. coli M15) [µM],Minimal Inhibitory Concentrations (MIC) (E. coli ATCC 25922) [µM],IC50 [2] [µM],Minimal Inhibitory Concentrations (MIC) [3] [µM],Minimal Inhibitory Concentrations (MIC) [4] [µM],Minimal Inhibitory Concentrations (MIC) [5] [µM],Minimal Inhibitory Concentrations (MIC) (P. aeruginosa c.i.) [µM],Capacity to permeabilize the outer membrane with respect to arenicin-1 [6],Minimal Inhibitory Concentrations (MIC) [7] [µM],G-MIC (geometric mean of all determined MICs) [8] [µM],Minimal Inhibitory Concentrations (MIC) (Escherichia coli ML35p) [µM]
"CC(C)C[C@@H]1NC(=O)[C@H](C(C)C)NC(=O)CNC(=O)[C@H](CCCNC(=N)N)NC(=O)[C@H](C(C)C)NC(=O)[C@H](CCCNC(=N)N)NC(=O)[C@H](C(C)C)NC(=O)[C@H](Cc2ccc(O)cc2)NC(=O)[C@H](C)NC(=O)[C@H](Cc2ccc(O)cc2)NC(=O)[C@H](C(C)C)NC(=O)[C@@H]2CSSC[C@H](NC(=O)[C@H](CCCNC(=N)N)NC(=O)[C@H](CCCNC(=N)N)NC(=O)[C@H](Cc3ccc(O)cc3)NC(=O)[C@H](CCCNC(=N)N)NC(=O)[C@H](C(C)C)NC1=O)C(=O)N[C@@H](Cc1c[nH]c3ccccc13)C(=O)N[C@@H](CCCNC(=N)N)C(=O)N[C@@H](Cc1c[nH]c3ccccc13)C(=O)N2 [ARcycl] (HELM PEPTIDE1{R.W.C.V.Y.A.Y.V.R.V.R.G.V.L.V.R.Y.R.R.C.W}$PEPTIDE1,PEPTIDE1,3:R3-20:R3|PEPTIDE1,PEPTIDE1,1:R1-21:R2$$$V2.0)",2,4,4,4,2,2,16.2,1,2,2,2,improved capacity to permeabilize the outer membrane,4,–,–
"CC(C)[C@@H]1NC(=O)[C@H](CCCNC(=N)N)NC(=O)[C@H](C(C)C)NC(=O)[C@H](Cc2ccc(O)cc2)NC(=O)[C@H](C)NC(=O)[C@H](Cc2ccc(O)cc2)NC(=O)[C@H](C(C)C)NC(=O)[C@@H](NC(=O)[C@H](Cc2c[nH]c3ccccc23)NC(=O)[C@@H](N)CCCNC(=N)N)CSSC[C@H](NC(=O)[C@H](Cc2c[nH]c3ccccc23)NC(=O)[C@@H](N)CCCNC(=N)N)C(=O)N[C@@H](C(C)C)C(=O)N[C@@H](Cc2ccc(O)cc2)C(=O)N[C@@H](C)C(=O)N[C@@H](Cc2ccc(O)cc2)C(=O)N[C@@H](C(C)C)C(=O)N[C@@H](CCCNC(=N)N)C(=O)N[C@@H](C(C)C)C(=O)N[C@H](C(=O)N[C@@H](CN)C(N)=O)CCCNC1=O [ARs-N-B] (HELM PEPTIDE1{R.W.C.V.Y.A.Y.V.R.V.[Orn].[NC[C@H](N[*:1])C(=O)[*:2]].[am]}|PEPTIDE2{R.W.C.V.Y.A.Y.V.R.V}$PEPTIDE1,PEPTIDE2,3:R3-3:R3|PEPTIDE1,PEPTIDE2,11:R3-10:R2$$$V2.0)",8,8,8,8,4,8,35.1,2,8,2 to 4,16,–,4,5.9,4
"CC(C)[C@@H]1NC(=O)CNC(=O)[C@H](CCCNC(=N)N)NC(=O)[C@H](C(C)C)NC(=O)[C@H](CCCNC(=N)N)NC(=O)[C@H](C(C)C)NC(=O)[C@H](Cc2ccc(O)cc2)NC(=O)[C@H](C)NC(=O)[C@H](Cc2ccc(O)cc2)NC(=O)[C@H](C(C)C)NC(=O)[C@@H](NC(=O)[C@H](Cc2c[nH]c3ccccc23)NC(=O)[C@H](CCCNC(=N)N)NC(=O)[C@@H](N)CCCNC(=N)N)CSSC[C@@H](C(=O)N[C@@H](Cc2c[nH]c3ccccc23)C(=O)O)NC(=O)[C@H](C(C)C)NC(=O)[C@H](Cc2ccc(O)cc2)NC(=O)[C@H](C)NC(=O)[C@H](Cc2ccc(O)cc2)NC(=O)[C@H](C(C)C)NC(=O)[C@H](CCCNC(=N)N)NC1=O [ARs-N] (HELM PEPTIDE1{R.R.W.C.V.Y.A.Y.V.R.V.R.G.V.R.V.Y.A.Y.V.C.W}$PEPTIDE1,PEPTIDE1,4:R3-21:R3$$$V2.0; N-terminus assumed)",>16,>16,>16,>16,>16,>16,18,>16,>16,8,>16,–,>16,≥26.9,16
